Each structure is given as a SMILES string.

A word on the EC50: it is the concentration giving half of the maximal effect.

The experiment has as its target T1, ERR1 (also known as ERR-α or ERR-1) (Homo sapiens, UniProt P11474).
T1 sequence (P11474 193-421 limits assumed): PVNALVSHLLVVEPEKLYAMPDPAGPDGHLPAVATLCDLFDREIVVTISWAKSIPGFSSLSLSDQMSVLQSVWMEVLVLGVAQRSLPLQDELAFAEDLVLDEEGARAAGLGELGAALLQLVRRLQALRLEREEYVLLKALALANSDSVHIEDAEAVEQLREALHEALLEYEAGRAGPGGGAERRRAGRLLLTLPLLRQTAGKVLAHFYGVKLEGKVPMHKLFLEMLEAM
The experiment can be described thus: TR-FRET assay (disruption of co-activator peptide binding to ERR1 LBD). It is filed as biochemical. Conditions: 6 nM 6His-ERR1LBD, 6 nM GST-SRC-2 peptide; average of 3 independent experiments. Here is the method: Time-Resolved Fluorescence Resonance Energy Transfer (TR-FRET) experiments were performed to examine the functional response of ERR1 (also known as ERR-α or ERR-1) ligands. The TR-FRET assay described herein relied on the conformation of ERR1 for binding to a co-activator peptide: when a test compound binds to ERR1 and alters its conformation, it can disrupt the binding of the co-activator peptide. The components of this homogeneous secondary assay included: the ^6His-tagged-ERR1LBD, a GST-labeled-hSRC2 co-activator polypeptide and a fluorescent donor/acceptor pair from CIS bio international htrf/bioassays (Bedford, Mass.) using both an α-GST Europium (Eu) Cryptate label and an α^6His-XL665 (allophycocyanin) fluorophore.
For TR-FRET measurements, the reaction was buffered in 25 mM Tris pH 8, 2.5 mM Hepes, 20 mM KCl, 1 mM DTT, and 0.05 mg/mL BSA (delipidated). The final concentrations of reagents were 6 nM of ERR1LBD, 6 nM GST-SRC-2 peptide, 30 nM Eu cryptate, and 7.5 nM a^6His-XL665. Reactions were allowed to reach equilibrium at 25° C. for 4-18 h before collecting data on the Analyst from LJL Biosystems (Molecular Devices Sunnyvale, Calif.). […] Dose response curves were fitted using a hyperbolic equation and the data reported is the average of 3 independent experiments.
(In general: Time-resolved FRET reads energy transfer from a long-lived donor to a nearby acceptor.)
The compound `O=C(O)CN1C(=O)S/C(=C\c2ccc3c(c2)c(-c2ccc(F)cc2)nn3Cc2ccc(Cl)cc2C(F)(F)F)C1=O` [Compound 408, [(5Z)-5-({1-[4-Chloro-2-(trifluoromethyl)benzyl]-3-(4-fluorophenyl)-1H-indazol-5-yl}methylidene)-2,4-dioxo-1,3-thiazolidin-3-yl]acetic acid] had an EC50 of 153 nM.
`COCCN1CCO[C@H](CN2C(=O)S/C(=C\c3ccc4c(cnn4Cc4ccc(Cl)cc4C(F)(F)F)c3)C2=O)C1` [Compound 189, (5Z)-5-({1-[4-Chloro-2-(trifluoromethyl)benzyl]-1H-indazol-5-yl}methylidene)-3-{[(2S)-4-(2-methoxyethyl)morpholin-2-yl]methyl}-1,3-thiazolidine-2,4-dione] gave an EC50 of 160 nM. The EC50 values of the last two compounds are within 1.5-fold of each other.
As for `O=C1S/C(=C\c2ccc3c(cnn3Cc3ccc(Cl)cc3C(F)(F)F)c2)C(=O)N1C1CCN(CC(F)(F)F)CC1` [Compound 150, (5Z)-5-({1-[4-Chloro-2-(trifluoromethyl)benzyl]-1H-indazol-5-yl}methylidene)-3-[1-(2,2,2-trifluoroethyl)piperidin-4-yl]-1,3-thiazolidine-2,4-dione], the figure is 57 nM; as for `CN1C[C@@H](F)[C@H](N2C(=O)S/C(=C\c3ccc4c(cnn4Cc4ccc(Cl)cc4C(F)(F)F)c3)C2=O)C1` (relative stereo) [Compound 319, (5Z)-5-({1-[4-Chloro-2-(trifluoromethyl)benzyl]-1H-indazol-5-yl}methylidene)-3-[trans-4-fluoro-1-methylpyrrolidin-3-yl]-1,3-thiazolidine-2,4-dione], 21 nM; as for `CN1CCC(=O)C(N2C(=O)S/C(=C\c3ccc4c(cnn4Cc4ccc(Cl)cc4C(F)(F)F)c3)C2=O)C1` (centres unmarked) [Compound 344, (5Z)-5-({1-[4-Chloro-2-(trifluoromethyl)benzyl]-1H-indazol-5-yl}methylidene)-3-(1-methyl-4-oxopiperidin-3-yl)-1,3-thiazolidine-2,4-dione], 40 nM.
Take `O=C1S/C(=C\c2ccc3c(cnn3Cc3ccc(Cl)cc3C(F)(F)F)c2)C(=O)N1C[C@@H](O)CN1CCCC1` [Compound 292, (5Z)-5-({1-[4-Chloro-2-(trifluoromethyl)benzyl]-1H-indazol-5-yl}methylidene)-3-[(2S)-2-hydroxy-3-pyrrolidin-1-ylpropyl]-1,3-thiazolidine-2,4-dione]: it took 49 nM to reach a half-maximal effect (EC50).
`CN1CCC(F)(CN2C(=O)S/C(=C\c3ccc4c(cnn4Cc4ccc(Cl)cc4C(F)(F)F)c3)C2=O)CC1` [Compound 304, (5Z)-5-({1-[4-Chloro-2-(trifluoromethyl)benzyl]-1H-indazol-5-yl}methylidene)-3-[(4-fluoro-1-methylpiperidin-4-yl)methyl]-1,3-thiazolidine-2,4-dione] had an EC50 of 7 nM.
For `O=C1S/C(=C\c2ccc3c(cnn3Cc3ccc(Cl)cc3C(F)(F)F)c2)C(=O)N1CCN1CCC1` [Compound 120, (5Z)-3-(2-Azetidin-1-ylethyl)-5-({1-[4-chloro-2-(trifluoromethyl)benzyl]-1H-indazol-5-yl}methylidene)-1,3-thiazolidine-2,4-dione], the EC50 amounted to 220 nM. This EC50 is about 31-fold higher than that of the compound before.
Take `COCCN1C(=O)S/C(=C\c2ccc3c(ccn3Cc3ccc(F)cc3C(F)(F)F)c2)C1=O` [Compound 251, (5Z)-5-[(1-{[4-Fluoro-2-(trifluoromethyl)phenyl]methyl}-1H-indol-5-yl)methylidene]-3-[2-(methyloxy)ethyl]-1,3-thiazolidine-2,4-dione]: the EC50 was determined as 350 nM. Compared with the last compound, the EC50 is about 1.6-fold higher.
With `CCN1CC[C@@H](N2C(=O)S/C(=C\c3ccc4c(cnn4Cc4ccc(C(F)(F)F)cc4C(F)(F)F)c3)C2=O)[C@H](F)C1` (relative stereo) [Compound 336, (5Z)-5-({1-[2,4-Bis(trifluoromethyl)benzyl]-1H-indazol-5-yl}methylidene)-3-[trans-1-ethyl-3-fluoropiperidin-4-yl]-1,3-thiazolidine-2,4-dione], the EC50 came out at 293 nM. This EC50 and that of the compound before are within 1.5-fold of each other.
As to `O=C1S/C(=C\c2ccc3c(cnn3Cc3ccc(Cl)cc3C(F)(F)F)c2)C(=O)N1[C@@H]1CCN(CCO)C[C@H]1F` (relative stereo) [Compound 327, (5Z)-5-({1-[4-Chloro-2-(trifluoromethyl)benzyl]-1H-indazol-5-yl}methylidene)-3-[trans-3-fluoro-1-(2-hydroxyethyl)piperidin-4-yl]-1,3-thiazolidine-2,4-dione], the EC50 was 21 nM.
`CS(=O)(=O)NCCN1C(=O)S/C(=C\c2ccc3c(cnn3Cc3ccc(Cl)cc3C(F)(F)F)c2)C1=O` [Compound 158, N-{2-[(5Z)-5-({1-[4-Chloro-2-(trifluoromethyl)benzyl]-1H-indazol-5-yl}methylidene)-2,4-dioxo-1,3-thiazolidin-3-yl]ethyl}methanesulfonamide] registered an EC50 of 21 nM.
For `O=C1OCCN1CCN1C(=O)S/C(=C\c2ccc3c(cnn3Cc3ccc(Cl)cc3C(F)(F)F)c2)C1=O` [Compound 131, (5Z)-5-({1-[4-Chloro-2-(trifluoromethyl)benzyl]-1H-indazol-5-yl}methylidene)-3-[2-(2-oxo-1,3-oxazolidin-3-yl)ethyl]-1,3-thiazolidine-2,4-dione], a half-maximal response (EC50) required 5 nM.
For `COC(=O)CN1C(=O)S/C(=C\c2ccc3c(cnn3[C@@H]3CCc4cc(Cl)ccc43)c2)C1=O` [Compound 177, Methyl [(5Z)-5-({1-[(1R)-5-chloro-2,3-dihydro-1H-inden-1-yl]-1H-indazol-5-yl}methylidene)-2,4-dioxo-1,3-thiazolidin-3-yl]acetate], the midpoint of the response, the EC50, lay at 6000 nM.
The compound `CS(=O)(=O)NN1C(=O)S/C(=C\c2ccc3c(cnn3Cc3ccc(C#N)cc3C(F)(F)F)c2)C1=O` [Compound 362, N-[(5Z)-5-({1-[4-Cyano-2-(trifluoromethyl)benzyl]-1H-indazol-5-yl}methylidene)-2,4-dioxo-1,3-thiazolidin-3-yl]methanesulfonamide] showed an EC50 of 308 nM.
In turn, `O=C(O)[C@@H]1C[C@@H](N2C(=O)S/C(=C\c3ccc4c(cnn4Cc4ccc(Cl)cc4C(F)(F)F)c3)C2=O)CN1` [Compound 181, (4R)-4-[(5Z)-5-({1-[4-Chloro-2-(trifluoromethyl)benzyl]-1H-indazol-5-yl}methylidene)-2,4-dioxo-1,3-thiazolidin-3-yl]-L-proline] had a 50% effective concentration (EC50) of 25 nM.
`O=C(O)C1CCC(N2C(=O)S/C(=C\c3ccc4c(c3)c(Cl)nn4Cc3ccc(Cl)cc3C(F)(F)F)C2=O)CC1` (centres unmarked) [Compound 302, 4-[(5Z)-5-({3-Chloro-1-[4-chloro-2-(trifluoromethyl)benzyl]-1H-indazol-5-yl}methylidene)-2,4-dioxo-1,3-thiazolidin-3-yl] cyclohexanecarboxylic acid] came in with an EC50 of 2 nM.
Turning to `COCCN1CCC(N2C(=O)S/C(=C\c3ccc4c(cnn4Cc4ccc(Cl)cc4C(F)(F)F)c3)C2=O)CC1` [Compound 147, (5Z)-5-({1-[4-Chloro-2-(trifluoromethyl)benzyl]-1H-indazol-5-yl}methylidene)-3-[1-(2-methoxyethyl)piperidin-4-yl]-1,3-thiazolidine-2,4-dione], it took 36 nM to reach a half-maximal effect (EC50). Against the preceding compound, the EC50 is about 18-fold higher.
As to `COC(=O)C(C1CCOCC1)N1C(=O)S/C(=C\c2ccc3c(cnn3Cc3ccc(Cl)cc3C(F)(F)F)c2)C1=O` (centres unmarked) [Compound 209, Methyl [(5Z)-5-({1-[4-chloro-2-(trifluoromethyl)benzyl]-1H-indazol-5-yl}methylidene)-2,4-dioxo-1,3-thiazolidin-3-yl](tetrahydro-2H-pyran-4-yl)acetate], the EC50 amounted to 87 nM. This EC50 is about 2.4-fold higher than that of the compound before.
`O=C(O)C1CCC(N2C(=O)S/C(=C\c3ccc4c(c3)nnn4Cc3ccc(Cl)cc3C(F)(F)F)C2=O)CC1` (centres unmarked) [Compound 266, 4-[(5Z)-5-({1-[4-Chloro-2-(trifluoromethyl)benzyl]-1H-benzotriazol-5-yl}methylidene)-2,4-dioxo-1,3-thiazolidin-3-yl]cyclohexanecarboxylic acid] had an EC50 of 29 nM. Compared with the last compound, the EC50 is about 3-fold lower.
With `NN1C(=O)S/C(=C\c2ccc3c(cnn3Cc3ccc(Cl)cc3C(F)(F)F)c2)C1=O` [Compound 355, (5Z)-3-Amino-5-({1-[4-chloro-2-(trifluoromethyl)benzyl]-1H-indazol-5-yl}methylidene)-1,3-thiazolidine-2,4-dione], the response was half-maximal at 20 nM (EC50). The EC50 values of the last two compounds are within 1.5-fold of each other.
For the compound `CCN1CCC(N2C(=O)S/C(=C\c3ccc4c(c3)c(OC)nn4Cc3ccc(Cl)cc3C(F)(F)F)C2=O)CC1` [Compound 30, (5Z)-5-({1-[4-Chloro-2-(trifluoromethyl)benzyl]-3-methoxy-1H-indazol-5-yl}methylidene)-3-(1-ethylpiperidin-4-yl)-1,3-thiazolidine-2,4-dione], the EC50 was determined as 96 nM.
In turn, `NC(=O)CN1CC[C@@H](CN2C(=O)S/C(=C\c3ccc4c(cnn4Cc4ccc(Cl)cc4C(F)(F)F)c3)C2=O)C1` [Compound 299, 2-[(3R)-3-{[(5Z)-5-({1-[4-Chloro-2-(trifluoromethyl)benzyl]-1H-indazol-5-yl}methylidene)-2,4-dioxo-1,3-thiazolidin-3-yl]methyl}pyrrolidin-1-yl]acetamide] returned an EC50 of 37 nM.
